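Cultured in 96-well plates, cells were exposed to test compound for 48 hours across five concentrations. Abbreviation: GI50, concentration required for 50% inhibition of growth. The concentration for full growth arrest is given as TGI.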
What was measured:
Assay in all cases: growth of human tumour cells (NCI), 48 h
OVCAR-8 ovarian = tested on: OVCAR-8 ovarian
OVCAR-5 ovarian = tested on: OVCAR-5 ovarian
U251 CNS = tested on: U251 CNS
OVCAR-4 ovarian = tested on: OVCAR-4 ovarian
SR leukemia = tested on: SR leukemia
786-0 renal = tested on: 786-0 renal
RXF 393 renal = tested on: RXF 393 renal
UACC-257 melanoma = tested on: UACC-257 melanoma
BT-549 breast = tested on: BT-549 breast
A498 renal = tested on: A498 renal

| Structure (SMILES) | TGI (OVCAR-8 ovarian) | TGI (OVCAR-5 ovarian) | TGI (U251 CNS) | TGI (OVCAR-4 ovarian) | TGI (SR leukemia) | TGI (786-0 renal) | TGI (RXF 393 renal) | TGI (UACC-257 melanoma) | GI50 (BT-549 breast) | TGI (BT-549 breast) | GI50 (A498 renal) | TGI (A498 renal) | GI50 (OVCAR-8 ovarian) | GI50 (OVCAR-5 ovarian) | GI50 (U251 CNS) | GI50 (OVCAR-4 ovarian) | GI50 (786-0 renal) | GI50 (RXF 393 renal) | GI50 (UACC-257 melanoma) | GI50 (SR leukemia) |
| --- | --- | --- | --- | --- | --- | --- | --- | --- | --- | --- | --- | --- | --- | --- | --- | --- | --- | --- | --- | --- |
| NC1=NN(c2ccccc2)C(=O)C1C(=O)C(=O)NC1C2CC3CC(C2)CC1C3 (stereo not given) | > 100 µM | > 100 µM | > 100 µM | > 100 µM | > 100 µM | > 100 µM | > 100 µM | > 100 µM | – | – | – | – | – | – | – | – | – | – | – | – |
| Cc1oncc1C(=O)Nc1ccc(C(F)(F)F)cc1 | > 100 µM | > 100 µM | > 100 µM | > 100 µM | – | > 100 µM | > 100 µM | > 100 µM | 22.1 µM | > 100 µM | 9.97 µM | 58.7 µM | 17.6 µM | > 100 µM | 14.7 µM | 25 µM | 54.5 µM | 23.9 µM | 26.9 µM | – |
| O=S1Cc2ccccc2CS1 (stereo not given) | 28.7 µM | 56.9 µM | 24.5 µM | 30.6 µM | 64.4 µM | 29.2 µM | 29.5 µM | 32 µM | – | – | – | > 100 µM | – | – | – | – | – | – | – | – |
| C=CCOC1=C2CC[C@H](O)[C@@]2(C)CCC1=O | > 100 µM | > 100 µM | > 100 µM | > 100 µM | > 100 µM | > 100 µM | > 100 µM | > 100 µM | – | – | – | > 100 µM | – | – | – | – | – | – | – | – |
| Cc1ccc(NC(=O)C2C(=O)C(=O)N(c3ccc(C)cc3)C2=O)cc1 (stereo not given) | > 100 µM | > 100 µM | > 100 µM | > 100 µM | > 100 µM | > 100 µM | > 100 µM | > 100 µM | – | – | – | > 100 µM | – | – | – | – | – | – | – | – |
| COC(=O)C(=C\Sc1ccccc1)/C=C/C(=O)OC(C)(C)C | 31.2 µM | 28.8 µM | 27.7 µM | 28.6 µM | 21 µM | 10.9 µM | 7.7 µM | 26.5 µM | – | – | – | – | – | – | – | – | – | – | – | – |
| CCOC(=O)NC(=O)c1cn(CCCCCCCCCCC(=O)N2CCN(CCn3cc(C(=O)NC(=O)OCC)c(=O)[nH]c3=O)CC2)c(=O)[nH]c1=O | > 100 µM | – | > 100 µM | > 100 µM | – | > 100 µM | > 100 µM | > 100 µM | – | – | – | > 100 µM | – | – | – | – | – | – | – | – |
| O=C(Nc1cccc(-n2cc(-c3ccncc3)c(-c3cc(O)cc(Cl)c3)n2)c1)Nc1ccc(Cl)c(Cl)c1 | 5.06 µM | 6.16 µM | 3.09 µM | – | 4.24 µM | 3.71 µM | 2.46 µM | 4.3 µM | 2.06 µM | 5.22 µM | 2.09 µM | 9.06 µM | 2.02 µM | 2.14 µM | 1.44 µM | – | 1.48 µM | 0.555 µM | 1.95 µM | 1.31 µM |
| Nc1ccccc1S(=O)c1ccccc1 (stereo not given) | > 100 µM | > 100 µM | > 100 µM | > 100 µM | – | > 100 µM | > 100 µM | > 1 µM | – | – | – | > 100 µM | – | – | – | – | – | – | – | – |
| CCCCN(CCCC)c1cc(C(=O)CCCCCN)c2ccccc2n1 | 4.61 µM | 3.65 µM | 3.23 µM | – | – | 3.27 µM | 2.89 µM | 3.5 µM | 8.57 µM | 23.4 µM | 2.85 µM | 19.2 µM | 2.03 µM | 1.85 µM | 1.77 µM | – | 1.83 µM | 1.53 µM | 1.76 µM | – |

— PubChem BioAssay (NCI)
